# Results: US9833497B2, “Human originated EGF domain proteins and use of the same” (CHENGDU SOURCEBIO LIMITED-LIABILITY COMPANY, priority 2013, dated 2017)
# How the values were obtained:
# Format in all cases: cell-based
# E. coli DH5α = test: Antibacterial activity: MIC and growth curve against E. coli DH5α in 96-well plate; details: minimal inhibitory concentration against E. coli DH5α; 96-well plate, 5×10^5 CFU/mL, 37° C., judged after 8 h
# How it was run: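 Log-phase DH5α (OD600 about 0.5, 37° C, 185 rpm in LB) was pelleted, resuspended in fresh LB and seeded at 5×10^5 CFU/mL with recombinant protein at 50, 25 and 12.5 μg/mL (two-fold series), in triplicate. Plates were shaken at 175 rpm, 37° C, and OD600 was read every 30 min. MIC was the lowest concentration with no growth.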
# E. coli BL21 = test: MIC against Gram-negative bacteria: E. coli BL21; details: 5×10^5 CFU/mL
# How it was run: (§1)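 Two-fold serial dilutions of each purified human EGF domain protein, three replicate wells per level, were combined with bacteria at a final 5×10^5 CFU/mL in LB. Cultures were shaken at 175 rpm, 37° C. The MIC was taken as the minimum concentration preventing growth.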
# Pseudomonas aeruginosa = test: MIC against Gram-negative bacteria: Pseudomonas aeruginosa; details: 5×10^5 CFU/mL
# How it was run: as §1
# Klebsiella pneumonia = test: MIC against Gram-negative bacteria: Klebsiella pneumonia; details: 5×10^5 CFU/mL
# How it was run: as §1
# Enterobacter cloacae = test: MIC against Gram-negative bacteria: Enterobacter cloacae; details: 5×10^5 CFU/mL
# How it was run: as §1
# Aeromonas hydrophila = test: MIC against Gram-negative bacteria: Aeromonas hydrophila; details: 5×10^5 CFU/mL
# How it was run: as §1
# Citrobacter diversus = test: MIC against Gram-negative bacteria: Citrobacter diversus; details: 5×10^5 CFU/mL
# How it was run: as §1
# Moraxella catarrhalis = test: MIC against Gram-negative bacteria: Moraxella catarrhalis; details: 5×10^5 CFU/mL
# How it was run: as §1
# Proteus mirabilis = test: MIC against Gram-negative bacteria: Proteus mirabilis; details: 5×10^5 CFU/mL
# How it was run: as §1
# Proteus vulgaris = test: MIC against Gram-negative bacteria: Proteus vulgaris; details: 5×10^5 CFU/mL
# How it was run: as §1
# Serratia marcescens = test: MIC against Gram-negative bacteria: Serratia marcescens; details: 5×10^5 CFU/mL
# How it was run: as §1
# [1] = E. coli BL21, 10 h cultivation at 37° C.
# [2] = P. aeruginosa, 10 h cultivation at 37° C.
# [3] = K. pneumonia, 10 h cultivation at 37° C.
# [4] = E. cloacae, 10 h cultivation at 37° C.
# [5] = A. hydrophila, 10 h cultivation at 37° C.
# [6] = C. diversus, 10 h cultivation at 37° C.
# [7] = M. catarrhalis, 10 h cultivation at 37° C.
# [8] = P. mirabilis, 10 h cultivation at 37° C.
# [9] = P. vulgaris, 10 h cultivation at 37° C.
# [10] = S. marcescens, 10 h cultivation at 37° C.
# [11] = 10 h cultivation at 37° C., two-fold serial dilution
substance,measurement,setting,value
PRT846 (CNCSVVGSLNVNRCNQTTGQCECRPGYQGLHCETCKEGFYLNYTSGLCQP; listed as Homo sapiens),MIC,E. coli DH5α,25 µg/mL
same,MIC (μg/mL) E. coli BL21,E. coli BL21; [1],12.5 µg/mL
same,MIC (μg/mL) P. aeruginosa,Pseudomonas aeruginosa; [2],25 µg/mL
same,MIC (μg/mL) K. pneumonia,Klebsiella pneumonia; [3],50 µg/mL
same,MIC (μg/mL) E. cloacae,Enterobacter cloacae; [4],12.5 µg/mL
same,MIC (μg/mL) A. hydrophila,Aeromonas hydrophila; [5],12.5 µg/mL
same,MIC (μg/mL) C. diversus,Citrobacter diversus; [6],12.5 µg/mL
same,MIC (μg/mL) M. catarrhalis,Moraxella catarrhalis; [7],12.5 µg/mL
same,MIC (μg/mL) P. mirabilis,Proteus mirabilis; [8],12.5 µg/mL
same,MIC (μg/mL) P. vulgaris,Proteus vulgaris; [9],12.5 µg/mL
same,MIC (μg/mL) S. marcescens,Serratia marcescens; [10],12.5 µg/mL
PRT755 (AVDYCASENHGCEHECVNADGSYLCQCHEGFALNPDKKTCT; listed as Homo sapiens),MIC,E. coli DH5α,12.5 µg/mL
same,MIC (μg/mL) E. coli BL21,E. coli BL21; [1],50 µg/mL
same,MIC (μg/mL) P. aeruginosa,Pseudomonas aeruginosa; [2],12.5 µg/mL
same,MIC (μg/mL) K. pneumonia,Klebsiella pneumonia; [3],50 µg/mL
same,MIC (μg/mL) E. cloacae,Enterobacter cloacae; [4],12.5 µg/mL
same,MIC (μg/mL) A. hydrophila,Aeromonas hydrophila; [5],50 µg/mL
same,MIC (μg/mL) C. diversus,Citrobacter diversus; [6],12.5 µg/mL
same,MIC (μg/mL) M. catarrhalis,Moraxella catarrhalis; [7],50 µg/mL
same,MIC (μg/mL) P. mirabilis,Proteus mirabilis; [8],12.5 µg/mL
same,MIC (μg/mL) P. vulgaris,Proteus vulgaris; [9],12.5 µg/mL
same,MIC (μg/mL) S. marcescens,Serratia marcescens; [10],25 µg/mL
PRT15 (GDHPCLPNPCHGGAPCQNLEAGRFHCQCPPGRVGPTCA; listed as Homo sapiens),MIC,E. coli DH5α,25 µg/mL
same,MIC (μg/mL) E. coli BL21,"E. coli BL21; E. coli BL21, 96-well plate, 37° C., 10 h",50 µg/mL
same,MIC (μg/mL) P. aeruginosa,"Pseudomonas aeruginosa; Pseudomonas aeruginosa, 96-well plate, 37° C., 10 h",25 µg/mL
same,MIC (μg/mL) K. pneumonia,"Klebsiella pneumonia; Klebsiella pneumonia, 96-well plate, 37° C., 10 h",12.5 µg/mL
same,MIC (μg/mL) E. cloacae,"Enterobacter cloacae; Enterobacter cloacae, 96-well plate, 37° C., 10 h",50 µg/mL
same,MIC (μg/mL) A. hydrophila,"Aeromonas hydrophila; Aeromonas hydrophila, 96-well plate, 37° C., 10 h",12.5 µg/mL
same,MIC (μg/mL) C. diversus,"Citrobacter diversus; Citrobacter diversus, 96-well plate, 37° C., 10 h",25 µg/mL
same,MIC (μg/mL) M. catarrhalis,"Moraxella catarrhalis; Moraxella catarrhalis, 96-well plate, 37° C., 10 h",12.5 µg/mL
same,MIC (μg/mL) P. mirabilis,"Proteus mirabilis; Proteus mirabilis, 96-well plate, 37° C., 10 h",12.5 µg/mL
same,MIC (μg/mL) P. vulgaris,"Proteus vulgaris; Proteus vulgaris, 96-well plate, 37° C., 10 h",12.5 µg/mL
same,MIC (μg/mL) S. marcescens,"Serratia marcescens; Serratia marcescens, 96-well plate, 37° C., 10 h",25 µg/mL
PRT1131 (RMPGCQHGTCHQPWQCICHSGWAGKFCD; listed as Homo sapiens),MIC,E. coli DH5α,50 µg/mL
same,MIC E. coli BL21,E. coli BL21; [11],12.5 µg/mL
same,MIC P. aeruginosa,Pseudomonas aeruginosa; [11],50 µg/mL
same,MIC K. pneumonia,Klebsiella pneumonia; [11],12.5 µg/mL
same,MIC E. cloacae,Enterobacter cloacae; [11],50 µg/mL
same,MIC A. hydrophila,Aeromonas hydrophila; [11],25 µg/mL
same,MIC C. diversus,Citrobacter diversus; [11],12.5 µg/mL
same,MIC M. catarrhalis,Moraxella catarrhalis; [11],50 µg/mL
same,MIC P. mirabilis,Proteus mirabilis; [11],12.5 µg/mL
same,MIC P. vulgaris,Proteus vulgaris; [11],50 µg/mL
same,MIC S. marcescens,Serratia marcescens; [11],12.5 µg/mL
PRT1483 (DIDECVTSSCEGHCVNTEGGFVCECGPGMQLSADRHSCQ; listed as Homo sapiens),MIC,E. coli DH5α,12.5 µg/mL
same,MIC against E. coli BL21,E. coli BL21; [1],25 µg/mL
same,MIC against P. aeruginosa,"Pseudomonas aeruginosa; Pseudomonas aeruginosa, 10 h cultivation at 37° C.",50 µg/mL
same,MIC against K. pneumonia,"Klebsiella pneumonia; Klebsiella pneumonia, 10 h cultivation at 37° C.",25 µg/mL
same,MIC against E. cloacae,"Enterobacter cloacae; Enterobacter cloacae, 10 h cultivation at 37° C.",12.5 µg/mL
same,MIC against A. hydrophila,"Aeromonas hydrophila; Aeromonas hydrophila, 10 h cultivation at 37° C.",25 µg/mL
same,MIC against C. diversus,"Citrobacter diversus; Citrobacter diversus, 10 h cultivation at 37° C.",50 µg/mL
same,MIC against M. catarrhalis,"Moraxella catarrhalis; Moraxella catarrhalis, 10 h cultivation at 37° C.",25 µg/mL
same,MIC against P. mirabilis,"Proteus mirabilis; Proteus mirabilis, 10 h cultivation at 37° C.",12.5 µg/mL
same,MIC against P. vulgaris,"Proteus vulgaris; Proteus vulgaris, 10 h cultivation at 37° C.",25 µg/mL
same,MIC against S. marcescens,"Serratia marcescens; Serratia marcescens, 10 h cultivation at 37° C.",25 µg/mL
PRT620 (CPCHNGFSCSVMPETEEVVCNNCPPGVTGARCELCADGYFGDPFGEHGPVRPCQP; listed as Homo sapiens),MIC,E. coli DH5α,25 µg/mL
same,MIC E. coli BL21,"E. coli BL21; 96-well plate, 37° C., 10 h",12.5 µg/mL
same,MIC P. aeruginosa,"Pseudomonas aeruginosa; 96-well plate, 37° C., 10 h",25 µg/mL
same,MIC K. pneumonia,"Klebsiella pneumonia; 96-well plate, 37° C., 10 h",50 µg/mL
same,MIC E. cloacae,"Enterobacter cloacae; 96-well plate, 37° C., 10 h",12.5 µg/mL
same,MIC A. hydrophila,"Aeromonas hydrophila; 96-well plate, 37° C., 10 h",50 µg/mL
same,MIC C. diversus,"Citrobacter diversus; 96-well plate, 37° C., 10 h",12.5 µg/mL
same,MIC M. catarrhalis,"Moraxella catarrhalis; 96-well plate, 37° C., 10 h",50 µg/mL
same,MIC P. mirabilis,"Proteus mirabilis; 96-well plate, 37° C., 10 h",25 µg/mL
same,MIC P. vulgaris,"Proteus vulgaris; 96-well plate, 37° C., 10 h",12.5 µg/mL
same,MIC S. marcescens,"Serratia marcescens; 96-well plate, 37° C., 10 h",25 µg/mL
PRT516 (CNCSGLGSKNEDPCFGPCICKENVEGGDCSRCKSGFFNLQEDNWKGCDE; listed as Homo sapiens),MIC,E. coli DH5α,12.5 µg/mL
same,MIC against E. coli BL21,"E. coli BL21; 96-well plate, 37° C., 10 h",50 µg/mL
same,MIC against P. aeruginosa,"Pseudomonas aeruginosa; 96-well plate, 37° C., 10 h",12.5 µg/mL
same,MIC against K. pneumonia,"Klebsiella pneumonia; 96-well plate, 37° C., 10 h",50 µg/mL
same,MIC against E. cloacae,"Enterobacter cloacae; 96-well plate, 37° C., 10 h",12.5 µg/mL
same,MIC against A. hydrophila,"Aeromonas hydrophila; 96-well plate, 37° C., 10 h",25 µg/mL
same,MIC against C. diversus,"Citrobacter diversus; 96-well plate, 37° C., 10 h",50 µg/mL
same,MIC against M. catarrhalis,"Moraxella catarrhalis; 96-well plate, 37° C., 10 h",25 µg/mL
same,MIC against P. mirabilis,"Proteus mirabilis; 96-well plate, 37° C., 10 h",12.5 µg/mL
same,MIC against P. vulgaris,"Proteus vulgaris; 96-well plate, 37° C., 10 h",25 µg/mL
same,MIC against S. marcescens,"Serratia marcescens; 96-well plate, 37° C., 10 h",50 µg/mL
